The values below come from ChEMBL document CHEMBL3137667, “[Drug-induced liver injury; fourteenth updated edition of the bibliographic database of liver injuries and related drugs]” (Gastroenterol Clin Biol, 2004).

Data set [1] is described as follows: Highest frequency of moderate liver toxicity observed during clinical trials, expressed as a percentage. [column '% BIOL' in source]. Conditions: human.
Data set [2] is described as follows: Highest frequency of acute liver toxicity observed during clinical trials, expressed as a percentage. [column '% AIGUE' in source]. As to conditions: human.
Data set [3] is described as follows: Times to onset, minimal and maximal, observed in the indexed observations. [column 'DELAI' in source]. As to conditions: human.
For data set [4] the following is noted: human, serum.
The conditions of data set [5]: human, serum. The source holds these as a separate data set.
The conditions of data set [6]: human.
The conditions of data set [7]: human. The source holds these as a separate data set.
For data set [8] the following is noted: human. The source holds these as a separate data set.
For data set [9] the following is noted: human, serum, 4383 h.
For data set [10] the following is noted: human. This is another data set of the same source.
For data set [11] the following is noted: human. The source holds these as a separate data set.
The conditions of data set [12]: human. The source holds these as a separate data set.
The conditions of data set [13]: human. This is another data set of the same source.
For data set [14] the following is noted: human. The source holds these as a separate data set.
The conditions of data set [15]: human. The source holds these as a separate data set.
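Throughout, for Hepatotoxicity (association with vascular disease): count of indexed literature references reporting vascular liver injury in humans, e.g. peliosis hepatitis, hepatic veno-occlusive disease or Budd-Chiari syndrome.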
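Throughout, for Hepatotoxicity (benign tumour): value is a count of indexed literature references citing a benign tumour confirmed by histopathology.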
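Throughout, for Hepatotoxicity (choleostasis): human cholestatic liver injury, shown by histopathology or by peak ALT or AST elevation over alkaline phosphatase ratio below 2, value counts indexed literature reports.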
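Throughout, for Hepatotoxicity (chronic liver disease): chronic liver injury confirmed by histopathology or persistently raised serum aminotransferase activity beyond 6 months, value given as the count of indexed literature references.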
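Throughout, for Hepatotoxicity (cirrhosis): value is a count of indexed literature references reporting cirrhosis confirmed by histopathology.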
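Throughout, for Hepatotoxicity (cytolytic): human cytolytic liver injury, shown by histopathology or by a ratio above 5 of peak ALT or AST elevation to alkaline phosphatase elevation, value counts indexed references.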
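Throughout, for Hepatotoxicity (granulomatous hepatitis): value is a count of indexed literature references reporting granulomatous liver disease confirmed by histopathology.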
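Throughout, for Hepatotoxicity (malignant tumour): malignant tumour confirmed by histopathology, value gives the count of indexed literature references reporting it.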
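Throughout, for Hepatotoxicity (severe hepatitis): human clinical data: severe hepatitis, meaning potentially life-threatening liver failure or clinically observed cases, the value counts how many indexed literature references report it.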
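Throughout, for Hepatotoxicity (steatosis): steatosis confirmed by histopathology, value is the count of indexed references.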

In the case of `COc1cc(NS(=O)(=O)c2ccc(N)cc2)nc(OC)n1` [SULFADIMETHOXINE], the figures for the “Hepatotoxicity (moderate)” value in data set [1] and in data set [4] were 0% and 0, respectively. Also, the results for the “Hepatotoxicity (acute)” value in [2] and in data set [5] were 0% and 2, respectively. In addition, the “Hepatotoxicity (time to onset)” value in [3] was 1 month - 2 months. For the same compound, the “Hepatotoxicity (cytolytic)” value in data set [6] came to 1. Moreover, the “Hepatotoxicity (choleostasis)” value in data set [7] amounted to 0. Further, the “Hepatotoxicity (severe hepatitis)” value in data set [8] is listed as 0. Further, the “Hepatotoxicity (chronic liver disease)” value in [9] is listed as 0. Moreover, the “Hepatotoxicity (cirrhosis)” value in data set [10] worked out at 0. The “Hepatotoxicity (granulomatous hepatitis)” value in [11] is on record as 1. The “Hepatotoxicity (association with vascular disease)” value in [12] is 0. The “Hepatotoxicity (steatosis)” value in data set [13] came out at 0. Moreover, in data set [14], the “Hepatotoxicity (malignant tumour)” value is on record as 0. Also, the “Hepatotoxicity (benign tumour)” value in data set [15] was found to be 0.

In the case of `Cc1nnc(NS(=O)(=O)c2ccc(N)cc2)s1` [SULFAMETHIZOLE], the “Hepatotoxicity (moderate)” value in [1] was determined as 0%; in data set [4], 0. Moreover, the entries for the “Hepatotoxicity (acute)” value in [2] and in data set [5] were 0% and 4, respectively. Also, in data set [3], the “Hepatotoxicity (time to onset)” value is 1 month - 2 months. The “Hepatotoxicity (cytolytic)” value in data set [6] is on record as 2. Besides, the “Hepatotoxicity (choleostasis)” value in data set [7] is listed as 1. In addition, the “Hepatotoxicity (severe hepatitis)” value in data set [8] is 0. The “Hepatotoxicity (chronic liver disease)” value in data set [9] is on record as 0. Moreover, the “Hepatotoxicity (cirrhosis)” value in data set [10] turned out to be 0. For the same compound, the “Hepatotoxicity (granulomatous hepatitis)” value in data set [11] amounted to 0. The “Hepatotoxicity (association with vascular disease)” value in [12] is reported as 0. In addition, the “Hepatotoxicity (steatosis)” value in data set [13] stood at 0. For the same compound, in data set [14], the “Hepatotoxicity (malignant tumour)” value was 0. For the same compound, in data set [15], the “Hepatotoxicity (benign tumour)” value stood at 0.

Turning to `O=C1C(CC[S+]([O-])c2ccccc2)C(=O)N(c2ccccc2)N1c1ccccc1` (stereo not given) [SULFINPYRAZONE], the “Hepatotoxicity (moderate)” value worked out at 0% in data set [1] (Liver) and 0 in [4]. For the same compound, the “Hepatotoxicity (acute)” value worked out at 0% in [2] (Liver) and 1 in data set [5]. The “Hepatotoxicity (time to onset)” value in data set [3] turned out to be 10 days. The “Hepatotoxicity (cytolytic)” value in [6] is 0. For the same compound, the “Hepatotoxicity (choleostasis)” value in data set [7] was 1. Also, the “Hepatotoxicity (severe hepatitis)” value in data set [8] (Liver) is reported as 0. In addition, the “Hepatotoxicity (chronic liver disease)” value in [9] stood at 0. Further, the “Hepatotoxicity (cirrhosis)” value in data set [10] turned out to be 0. Further, in data set [11], the “Hepatotoxicity (granulomatous hepatitis)” value is 0. For the same compound, the “Hepatotoxicity (association with vascular disease)” value in data set [12] is listed as 0. The “Hepatotoxicity (steatosis)” value in data set [13] is 0. In addition, the “Hepatotoxicity (malignant tumour)” value in [14] is listed as 0. In addition, in [15], the “Hepatotoxicity (benign tumour)” value was 0.

On to `CN1C(C(=O)Nc2ccccn2)=C(O)c2sccc2S1(=O)=O` [TENOXICAM], for which the entries for the “Hepatotoxicity (moderate)” value in data set [1] (Liver) and in data set [4] were 27% and 8, respectively. The entries for the “Hepatotoxicity (acute)” value in [2] (Liver) and in data set [5] were 0% and 3, respectively. Also, in data set [3], the “Hepatotoxicity (time to onset)” value was 3 days - 5 days. The “Hepatotoxicity (cytolytic)” value in data set [6] (Liver) came to 2. In addition, the “Hepatotoxicity (choleostasis)” value in [7] (Liver) was determined as 2. Also, the “Hepatotoxicity (severe hepatitis)” value in [8] (Liver) amounted to 0. In addition, the “Hepatotoxicity (chronic liver disease)” value in data set [9] is on record as 0. In addition, the “Hepatotoxicity (cirrhosis)” value in data set [10] is reported as 0. The “Hepatotoxicity (granulomatous hepatitis)” value in data set [11] (Liver) was determined as 0. Further, the “Hepatotoxicity (association with vascular disease)” value in data set [12] is listed as 0. For the same compound, in data set [13], the “Hepatotoxicity (steatosis)” value was 0. In data set [14], the “Hepatotoxicity (malignant tumour)” value worked out at 0. In data set [15], the “Hepatotoxicity (benign tumour)” value turned out to be 0.

Take `COc1cc2nc(N3CCN(C(=O)C4CCCO4)CC3)nc(N)c2cc1OC` (stereo not given) [TERAZOSIN]: the “Hepatotoxicity (moderate)” value in data set [1] was found to be 1.9%; in data set [4] it was 1. Further, the “Hepatotoxicity (acute)” value in data set [2] came out at 0%; in data set [5], 1. For the same compound, the “Hepatotoxicity (time to onset)” value in data set [3] is on record as 4 months. In addition, in data set [6], the “Hepatotoxicity (cytolytic)” value came out at 0. Besides, in data set [7], the “Hepatotoxicity (choleostasis)” value amounted to 0. Besides, the “Hepatotoxicity (severe hepatitis)” value in data set [8] turned out to be 0. The “Hepatotoxicity (chronic liver disease)” value in data set [9] amounted to 0. The “Hepatotoxicity (cirrhosis)” value in [10] turned out to be 0. In data set [11], the “Hepatotoxicity (granulomatous hepatitis)” value is given as 0. In addition, in data set [12], the “Hepatotoxicity (association with vascular disease)” value worked out at 0. In addition, the “Hepatotoxicity (steatosis)” value in [13] came out at 0. The “Hepatotoxicity (malignant tumour)” value in data set [14] was 0. Also, the “Hepatotoxicity (benign tumour)” value in data set [15] stood at 0.

With `S=P(N1CC1)(N1CC1)N1CC1` [THIOTEPA], the “Hepatotoxicity (moderate)” value worked out at 0% in data set [1] and 0 in [4]. The “Hepatotoxicity (acute)” value in data set [2] was determined as 5.3%; in data set [5], 1. Besides, in [3], the “Hepatotoxicity (time to onset)” value is recorded as 2 weeks. In data set [6], the “Hepatotoxicity (cytolytic)” value came to 1. For the same compound, in data set [7], the “Hepatotoxicity (choleostasis)” value is given as 1. The “Hepatotoxicity (severe hepatitis)” value in [8] is recorded as 2. Besides, in data set [9], the “Hepatotoxicity (chronic liver disease)” value worked out at 0. Also, the “Hepatotoxicity (cirrhosis)” value in data set [10] is 0. Moreover, the “Hepatotoxicity (granulomatous hepatitis)” value in [11] is 0. Besides, the “Hepatotoxicity (association with vascular disease)” value in data set [12] was 2. The “Hepatotoxicity (steatosis)” value in [13] was 0. Further, the “Hepatotoxicity (malignant tumour)” value in data set [14] came to 0. Further, the “Hepatotoxicity (benign tumour)” value in data set [15] is given as 0.

For the compound `O=P(O)(O)C(Sc1ccc(Cl)cc1)P(=O)(O)O` [TILUDRONIC ACID], the “Hepatotoxicity (moderate)” value in [1] is reported as 0.9%; in [4], 1. Also, the entries for the “Hepatotoxicity (acute)” value in data set [2] and in [5] were 0% and 0, respectively. Besides, in data set [3], the “Hepatotoxicity (time to onset)” value is 8 weeks. Also, the “Hepatotoxicity (cytolytic)” value in data set [6] amounted to 0. Moreover, in [7], the “Hepatotoxicity (choleostasis)” value is on record as 0. Also, the “Hepatotoxicity (severe hepatitis)” value in data set [8] worked out at 0. Besides, the “Hepatotoxicity (chronic liver disease)” value in [9] came out at 0. For the same compound, the “Hepatotoxicity (cirrhosis)” value in data set [10] amounted to 0. For the same compound, in data set [11], the “Hepatotoxicity (granulomatous hepatitis)” value is recorded as 0. The “Hepatotoxicity (association with vascular disease)” value in [12] was 0. Moreover, the “Hepatotoxicity (steatosis)” value in data set [13] was 0. Moreover, the “Hepatotoxicity (malignant tumour)” value in data set [14] is reported as 0. Further, the “Hepatotoxicity (benign tumour)” value in data set [15] worked out at 0.

Consider `CCS(=O)(=O)CCn1c([N+](=O)[O-])cnc1C` [TINIDAZOLE], for which the results for the “Hepatotoxicity (moderate)” value in [1] and in [4] were 0% and 1, respectively. For the same compound, the “Hepatotoxicity (acute)” value in data set [2] was determined as 0%; in data set [5], 1. In [3], the “Hepatotoxicity (time to onset)” value is 1 week. Further, the “Hepatotoxicity (cytolytic)” value in data set [6] came out at 1. The “Hepatotoxicity (choleostasis)” value in data set [7] was found to be 0. For the same compound, the “Hepatotoxicity (severe hepatitis)” value in [8] was 0. Moreover, the “Hepatotoxicity (chronic liver disease)” value in [9] is listed as 0. The “Hepatotoxicity (cirrhosis)” value in [10] is on record as 0. Besides, the “Hepatotoxicity (granulomatous hepatitis)” value in data set [11] was 0. The “Hepatotoxicity (association with vascular disease)” value in [12] came to 0. The “Hepatotoxicity (steatosis)” value in data set [13] was 0. Moreover, the “Hepatotoxicity (malignant tumour)” value in [14] was 0. The “Hepatotoxicity (benign tumour)” value in data set [15] worked out at 0.

As to `Sc1ncnc2[nH]ncc12` [TISOPURINE], the “Hepatotoxicity (moderate)” value in [1] is 0%; in data set [4] it was 0. Also, the “Hepatotoxicity (acute)” value in data set [2] amounted to 0%; in data set [5], 1. The “Hepatotoxicity (time to onset)” value in data set [3] stood at 1.5 months. In addition, the “Hepatotoxicity (cytolytic)” value in [6] was found to be 1. In addition, the “Hepatotoxicity (choleostasis)” value in [7] is 0. For the same compound, in data set [8], the “Hepatotoxicity (severe hepatitis)” value is given as 0. Moreover, in data set [9], the “Hepatotoxicity (chronic liver disease)” value is listed as 0. Moreover, the “Hepatotoxicity (cirrhosis)” value in data set [10] was 0. For the same compound, the “Hepatotoxicity (granulomatous hepatitis)” value in [11] is 0. Besides, the “Hepatotoxicity (association with vascular disease)” value in [12] was 0. Besides, the “Hepatotoxicity (steatosis)” value in data set [13] was determined as 0. Besides, the “Hepatotoxicity (malignant tumour)” value in data set [14] turned out to be 0. Moreover, the “Hepatotoxicity (benign tumour)” value in [15] came out at 0.

Regarding `NC[C@H]1O[C@H](O[C@H]2[C@H](O)[C@@H](O[C@H]3O[C@H](CO)[C@@H](O)[C@H](N)[C@H]3O)[C@H](N)C[C@@H]2N)[C@H](N)C[C@@H]1O` [TOBRAMYCIN], the “Hepatotoxicity (moderate)” value in data set [1] is reported as 23.5%; in [4], 12. Also, the entries for the “Hepatotoxicity (acute)” value in data set [2] and in [5] were 0% and 1, respectively. Also, the “Hepatotoxicity (time to onset)” value in data set [3] is listed as 1 day - 3 weeks. Further, the “Hepatotoxicity (cytolytic)” value in data set [6] came out at 0. Besides, the “Hepatotoxicity (choleostasis)” value in [7] is recorded as 0. Moreover, the “Hepatotoxicity (severe hepatitis)” value in data set [8] amounted to 0. Moreover, the “Hepatotoxicity (chronic liver disease)” value in data set [9] is 0. The “Hepatotoxicity (cirrhosis)” value in data set [10] is given as 0. In addition, in data set [11], the “Hepatotoxicity (granulomatous hepatitis)” value was 0. The “Hepatotoxicity (association with vascular disease)” value in data set [12] worked out at 0. Also, the “Hepatotoxicity (steatosis)” value in data set [13] is 0. In addition, in data set [14], the “Hepatotoxicity (malignant tumour)” value came out at 0. The “Hepatotoxicity (benign tumour)” value in data set [15] is recorded as 0.

`Cc1ccc(C(=O)c2ccc(CC(=O)O)n2C)cc1` [TOLMETIN]: the “Hepatotoxicity (moderate)” value in data set [1] (Liver) is 14.6%; in data set [4], 3. Further, the results for the “Hepatotoxicity (acute)” value in data set [2] (Liver) and in data set [5] were 0% and 1, respectively. In addition, the “Hepatotoxicity (time to onset)” value in [3] was found to be 3 weeks. The “Hepatotoxicity (cytolytic)” value in data set [6] came to 0. Moreover, the “Hepatotoxicity (choleostasis)” value in data set [7] worked out at 1. In data set [8] (Liver), the “Hepatotoxicity (severe hepatitis)” value stood at 0. Further, the “Hepatotoxicity (chronic liver disease)” value in [9] worked out at 0. Also, the “Hepatotoxicity (cirrhosis)” value in [10] is given as 0. Also, in [11], the “Hepatotoxicity (granulomatous hepatitis)” value was found to be 0. In addition, the “Hepatotoxicity (association with vascular disease)” value in [12] is recorded as 0. Besides, the “Hepatotoxicity (steatosis)” value in data set [13] is recorded as 0. The “Hepatotoxicity (malignant tumour)” value in [14] is 0. Further, the “Hepatotoxicity (benign tumour)” value in data set [15] is listed as 0.
